From US7964598B2 (The J. David Gladstone Institutes, priority 1995, dated 2011)

Experiments:
emulsion particles = assay: Control emulsion binding assays without compounds; settings: n = 9; no compound
Protocol: Preparation of emulsion particles. Triolein (160 mg) and L-alpha-Phosphatidylcholine (40 mg) are combined and dried under nitrogen. After the addition of 8 mls of buffer (10 mM Tris, 100 mM KCl, 1 mM EDTA, pH 8.0), the mixture is sonicated in a water bath to obtain a heterogeneous mix of emulsion particles. The particles are harvested by ultracentrifugation (TLA 100.2 rotor, 30,000 rpm for 30 minutes) and the subsequent lipid cake is removed by tube slicing and resuspended in 100 μt 20 mM Phosphate Buffer (PB). Triolein and phospholipid content are measured and total emulsion particle concentration is determined.
Radiolabelling Freshly denatured and renatured Apolipoprotein E3 and E4 are radiolabelled using Bolton-Hunter Reagent [^125I] (ICN). Specific Activity is determined using Lowry method and Gamma 8000 counter.
Binding Affinity Assay. […] In glass tubes, 25 μg of protein (with iodinated tracer) was reduced with 1% β-mercaptoethanol. Two hundred and fifty μg of emulsion particles and 2.5 μl of compound (10 mM stock) were added and the final mixture was brought up to 250 μl with 20 mM phosphate buffer (PB). The reaction mixture was then incubated in a 37° C. water bath for 2 hours before being transferred to 1.5 ml ultracentrifuge tubes. Finally, 50 μl of 60% sucrose was mixed with the sample and 400 μl 20 mM PB was carefully layered on top. Using a TLA 100.2 rotor, the tube was spun at 30,000 rpm for 30 minutes and subsequently cut to separate the floating emulsion particle layer from the free protein at the bottom of the tube. These fractions were then combined with the respective half of the actual tube and counted using a Gamma-8000.

B103-neo cells = assay: Cell association and degradation of 125I-Aβ40 by B103-neo cells; type: cell-based, rat; settings: 125I-Aβ1-40 350 pg/ml with apoE, 24-h incubation
Protocol: Cell Association and Degradation of ^125I-Aβ40 by Neo-transfected B103 Cells. […] Culture medium was collected after 24 h, and the degradation products of ^125I-Aβ40 in the medium were assayed as described. Goldstein et al al. ((1983) Methods Enzymol. 98:241-250). The cells were washed five times on ice with phosphate-buffered saline (PBS) containing 0.2% bovine serum albumin and once with PBS and lysed by 0.1 N NaOH. The cell-associated ^125I-Aβ40 was determined by counting the radioactivity in the cell lysate.
The cell association and degradation of Aβ were measured after a 24-h incubation, as described in Methods, above.

HSPG-deficient CHO cells = assay: Pulse chase of 125I-apoE+β-VLDL, HSPG-deficient CHO cells; type: cell-based, Chinese hamster
Protocol: Cultured cells were grown to ˜100% confluence, placed on ice, and washed twice with cold DMEM-Hepes. The cells were then incubated with ^125I-apoE+β-VLDL at 4° C. for 1 h to allow for cell-surface binding (zero time bound ligand). Cells were rinsed three times with cold F12 medium to remove unbound ligands. Prewarmed F12 medium was added; and the cells were incubated at 37° C. for the times indicated. At each point, the cells were again placed on ice, and the culture medium was collected. To 0.5 ml of medium was added 0.4 ml of 0.2% bovine serum albumin (Sigma) and 0.4 ml of 50% trichloroacetic acid (TCA). The medium was then incubated at 4° C. for 30 min and centrifuged at 3,000 rpm for 10 min. The supernatant was collected for ^125I-apoE degradation assay, and the pellet was counted as TCA-precipitable intact ^125I-apoE. The cells were washed once with cold DMEM-Hepes, incubated with 10 mM suramin on ice in a cold room for 30 min, and then dissolved in 0.1 N NaOH. Cellular radioactivity (internalized apoE) was measured with a gamma counter, and protein concentration was determined by Lowry's method.

Neuro-2a cells = assay: Metabolism of apoE-enriched β-VLDL by Neuro-2a cells; type: cell-based, mouse; settings: for enhancement of cell association of β-VLDL: 125I-β-VLDL enriched with apoE; for cell association: purified 125I-apoE-enriched β-VLDL; for increase of cellular cholesterol content: β-VLDL enriched with apoE, compared with β-VLDL alone
Protocol: Rabbit β-VLDL (d<1.006 g/ml) were isolated from the plasma of New Zealand White rabbits fed a high-fat, high-cholesterol diet for 4 days. The ratio of cholesterol to protein in this β-VLDL ranged from ˜15 to 20:1. Human apoE-enriched β-VLDL were prepared by incubating apoE with β-VLDL at 37° C. for 1 h. For some experiments, the apoE-enriched β-VLDL were reisolated by fast-performance liquid chromatography as follows. Either ^125I-β-VLDL and unlabeled apoE or ^125I-apoE and unlabeled β-VLDL were mixed in a 1:1.5 ratio of β-VLDL protein to apoE and incubated at 37° C. for 1 h. The mixture (250 μl) was then fractionated by chromatography on a Superose 6 column (Pharmacia Fine Chemicals, Uppsala, Sweden, 10/50 HR). The flow rate was 0.5 ml/min, and 0.5 ml fractions were collected. The elution profile was monitored by quantitation of ^125I and cholesterol.
Cultured cells were grown to ˜100% confluence, washed twice with fresh serum-free medium, and incubated at 37° C. with apoE-enriched β-VLDL. Before addition to the cells, the β-VLDL and apoE were incubated together (5 and 7.5 μg of protein, respectively, unless otherwise indicated) for 1 h at 37° C. Some cells were incubated with 50 μM chloroquine, and inhibitor of lysosomal protease, at 37° C. for 2 h before addition of the apoE-enriched β-VLDL. At the times indicated, the cells were placed on ice, and the medium was assayed for protein degradation products. For the cell association studies, Neuro-2a cells were washed five times on ice with 0.1 M PBS containing 0.2% bovine serum albumin and once with 0.1 M PBS. Cell-associated ligand represents both bound and internalized material. The fibroblasts were washed three times with DMEM-Hepes on ice and incubated with 10 mM suramin at 4° C. for 30 min to remove surface-bound ligand. The radioactivity remaining within the cells represents that which was “internalized.” After washing, the cells were dissolved in 0.1 N NaOH for measurement of radioactivity and protein concentration.
The cells were then washed and solubilized with 0.1 N NaOH, and the cell-associated DiI, which is proportional to the total amount of lipoprotein metabolized (bound, internalized, and degraded), was assayed.

Mean % bound (emulsion particles) [%] | Mean % free (emulsion particles) [%] | Median % bound (emulsion particles) [%] | Median % free (emulsion particles) [%] | Range % bound (emulsion particles) | Range % free (emulsion particles) | Substance | Cell association of 125I-Aβ1-40 (B103-neo cells) [fmol/mg cell protein] | Degradation of 125I-Aβ1-40 (B103-neo cells) [fmol/mg cell protein] | bound to the cells (HSPG-deficient CHO cells) | enhancement of cell association of β-VLDL (Neuro-2a cells) [fold] | cell association (Neuro-2a cells; 2 h) | cell association (Neuro-2a cells; 4 h) | increase of cellular cholesterol content (Neuro-2a cells) [fold]
29.8 | 70.2 | 33 | 67 | 20-39% | 61-81% | apoE3: human apolipoprotein E3 isoform, also iodinated | 10.8 ± 2.5 | 88.0 ± 6.7 | 77 ng/mg of cell protein | ~1.7 | 58 ng/mg of cell protein | 101 ng/mg of cell protein | ~1.5
59.4 | 40.6 | 60 | 40 |  | 30-50% | apoE4: human apolipoprotein E4 isoform, also iodinated | 14.7 ± 2.5 | 80.8 ± 22.9 | 75 ng/mg of cell protein | ~1.7 | 39 ng/mg of cell protein | 65 ng/mg of cell protein | ~1.7
